Reference: US20070270350A1, “Methods and Compositions for the Prevention and Treatment of Inflammatory Diseases or Conditions” (MUSC FOUNDATION FOR RESEARCH DEVELOPMENT, priority 2003, published 2007)

What was measured:
[1] = cited from earlier work
[2] = test system: iNOS; assay: LPS/IFN-induced NO production and iNOS gene expression in primary astrocytes; format: cell-based, rat
[3] = test system: iNOS; assay: LPS/IFN-induced NO production and iNOS expression in C6 glioma cells; format: cell-based, rat; details: exogenous glycosphingolipid with D-PDMP
Method: C6 rat glioma cells obtained from ATCC were maintained in Dulbecco's modified Eagle's medium (DMEM) (GIBCO, CA) containing 10% fetal bovine serum (FBS) (GIBCO) and 10 ? g/ml gentamicin. All the cultured cells were maintained at 37° C. in 5% CO2/95% air. At 80% confluency, the cells were incubated with serum free DMEM medium for 24 h prior to the incubation with LPS/IFN ? and other chemicals. Assay for NO production. Cells were cultured in 12-well plastic tissue culture plates. After the appropriate treatment, production of NO was determined by an assay of the culture supernatant for nitrite (Green et al., 1982). Briefly, 100 μl of culture supernatant was allowed to react with 100 μl of Griess reagent. The optical density of the assay samples was measured spectrophotometrically at 570 nm. Nitrite concentrations were calculated from a standard curve derived from the reaction of NaNO2 in fresh media. Western Blot Analysis. […] The protein concentration of samples was determined with the detergent compatible protein assay reagent (Bio-Rad Laboratories, CA) using bovine serum albumin (BSA) as the standard. Sample was boiled for 3 min with 0.1 volumes of 10% O-mercaptoethanol and 0.5% bromophenol blue mix. Fifty μg of total cellular protein was resolved by electrophoresis in 8 or 12% polyacrylamide gels, electro-transferred to polyvinylidene difluoride (PVDF) filter and blocked with Tween 20 containing Tris-buffered saline [TBST; 10 mM Trizma base (pH 7.4), 1% Tween 20, and 150 mM NaCl] with 5% skim milk. After incubation with antiserum against iNOS (BD PharMingen, CA), or hRas (Upstate Biotechnology, CA), or phospho-specific MAPK (p42/44) (Signal Transduction), in PVDF buffer for 2 h at room temperature, the filters were washed 3 times with TBST buffer and then incubated with horseradish peroxidase conjugated anti-rabbit or mouse IgG for 1 h. The membranes were autoradiographed by using ECL-plus (Amersham Pharmacia Biotech) after washing with TBST buffer. RT-PCR amplification. […] PCR amplification was conducted in 25 ? l of reaction mixture with 1.0 ? l of cDNA, […] and under the manufacturer's Taq polymerase conditions (Takara, […] Shuzo Co. Ltd, Japan). The sequence of primers used for PCR amplification are as follows; iNOS, (Forward-[NT], Reverse-[NT]), GalT-2 (Forward-[NT], Reverse-[NT]), GAPDH (Forward-[NT], Reverse-[NT]).

[4] = test system: small GTPase Ras; assay: Quantification of Ras activation (GST-Raf-1 Ras binding domain); format: cell-based, rat; details: exogenous LacCer with D-PDMP
Method: Quantification of Ras Activation. After stimulation, primary astrocytes in 6 well plates were washed with PBS and lysed in membrane lysis buffer (MLB; 0.5 ml of 25 mM HEPES, pH7.5, 150 mM NaCl, 1% Igepal CA-630, 0.25% sodium deoxycholate, 10% glycerol, 10 mM MgCl2, 1 mM EDTA, 25 mM NaF, 1 mM of sodium orthovanadate, and EDTA free Complete™ protease inhibitor cocktail). After centrifugation (5,000×g) at 4° C. for 5 min, supernatant was used for Ras activation assay. One hundred μg of supernatant was used for binding with agarose conjugated Ras-binding domain (RBD) of Raf-1 which was expressed in BL21 (Invitrogen) Escherichia coli strain transformed by pGEX-2T-GST-RBD in the presence of 0.1 mM of IPTG as described previously (Herrmann et al., 1995). The binding reaction was performed at 4° C. for 30 min in MLB. Following washing with MLB three times, Ras-RBD complex were denatured by adding of 2×SDS sample buffer. Ras protein was identified by western immunoblot analysis with Ras antibodies from Upstate Biotechnology.

[5] = test system: ERK1/2; assay: ERK1/2 phosphorylation by immunoblot after LPS/IFN; format: cell-based, rat; details: exogenous LacCer with D-PDMP
Method: (§1) Western Blot Analysis. For iNOS protein, the cells were washed with cold Tris buffered saline (TBS; 20 mM Trizma base, and 137 mM NaCl, pH 7.5), lysed in 1×SDS sample loading buffer (62.5 mM Trizma base, 2% w/v SDS, 10% glycerol), following sonication and centrifugation at 1,5000×g for 5 min, the supernatant was used for the iNOS western immunoblot assay. The protein concentration of samples was determined with the detergent compatible protein assay reagent (Bio-Rad Laboratories, CA) using bovine serum albumin (BSA) as the standard. Sample was boiled for 3 min with 0.1 volumes of 10% O-mercaptoethanol and 0.5% bromophenol blue mix. Fifty μg of total cellular protein was resolved by electrophoresis in 8 or 12% polyacrylamide gels, electro-transferred to polyvinylidene difluoride (PVDF) filter and blocked with Tween 20 containing Tris-buffered saline [TBST; 10 mM Trizma base (pH 7.4), 1% Tween 20, and 150 mM NaCl] with 5% skim milk. After incubation with antiserum against iNOS (BD PharMingen, CA), or hRas (Upstate Biotechnology, CA), or phospho-specific MAPK (p42/44) (Signal Transduction), in PVDF buffer for 2 h at room temperature, the filters were washed 3 times with TBST buffer and then incubated with horseradish peroxidase conjugated anti-rabbit or mouse IgG for 1 h. The membranes were autoradiographed by using ECL-plus (Amersham Pharmacia Biotech) after washing with TBST buffer.

[6] = test system: NF-κB; assay: NF-κB reporter, gel shift and IκB phosphorylation after LPS/IFN; format: cell-based, rat
Method: as §1
Nuclear Extraction and Electrophoretic mobility shift assay. Nuclear extracts from cells (1×10^7 cells) were prepared using previously published method (Dignam et al., 1983) with slight modification. Cells were harvested, washed twice with ice-cold TBS, and lysed in 400 μl of buffer A containing, 10 mM KCl, 2 mM MgCl2, 0.5 mM dithiothreitol, protease inhibitor cocktail (Sigma), and 0.1% Nonidet P40 in 10 mM HEPES, pH 7.9 for 10 min on ice. Following centrifugation at 5,000×g for 10 min, the pelleted nuclei were washed with buffer A without Nonidet P40, and re-suspended in 40 μl of buffer B containing 25% (v/v) glycerol, 0.42 M NaCl, 1.5 mM MgCl2, 0.2 mM EDTA, 0.5 mM dithiothreitol, and Complete™ protease inhibitor cocktail (Roche) in 20 mM HEPES, pH7.9 for 30 min on ice. The lysates were centrifuged at 15,000×g for 15 min and the supernatants containing the nuclear proteins were stored at −70° C. until use. Ten μg of nuclear proteins was used for the electrophoretic mobility shift assay for detection of AP-1, NFκB, and C/EBP DNA binding activities. DNA-protein binding reactions were carried out at room temperature for 20 min in 10 mM Trizma base (pH 7.9), 50 mM NaCl, 5 mM MgCl2, 1 mM EDTA, 1 mM dithiothreitol, 1 μg poly (dl-dC), 5% (v/v) glycerol, and approximately 0.3 pmol of NFκB (Santa Cruz Biotech) labeled with DIG-ddUTP using terminal deoxynucleotidyl transferase (Roche). Protein-DNA complexes were resolved from protein-free DNA in 5% polyacrylamide gels at room temperature in 50 mM Tris, pH 8.3, 0.38 M glycine, and 2 mM EDTA, and electroblotted onto positively charged nylon membranes. The chemiluminescence detection method for DIG-labeled probes is identical to the method described for the non-isotopic northern blot analysis in the preceding.
Transient Transfections and Reporter Gene Assay. 3×10^5 cells/well were cultured in 6-well plates for one day before the transfection. Transfection was performed with plasmid concentration constant (2.5 μg/transfection) and 8 μl of Fugene transfection reagent (Roche Molecular Biochemicals). One day after transfection, the cells were placed in serum free media for overnight. Following appropriate treatment, the cells were washed with phosphate buffered saline (PBS), scrapped, and then resuspended with 100 μl of lysis buffer (40 mM of Tricine pH 7.8, 50 mM of NaCl, 2 mM of EDTA, 1 mM of MgSO4, 5 mM of dithiothreitol, and 1% of Triton X-100). After incubation in room temperature for 15 min with occasional vortexing, the samples were centrifuged. […]

effect on D-PDMP reduction of Ras activation [4]	effect on D-PDMP inhibition of NF-κB DNA binding activity ([6]; exogenous LacCer with D-PDMP)	effect on D-PDMP inhibition of κB-repeat luciferase activity ([6]; exogenous LacCer with D-PDMP)	Compound	solubility in water [1]	effect on D-PDMP mediated inhibition of iNOS gene expression ([2]; LacCer 5 and 10 μM with D-PDMP 50 μM before LPS/IFN)	effect on PD98059 inhibition of iNOS gene expression ([2]; exogenous LacCer with PD98059)	effect on D-PDMP mediated inhibition of NO production ([2]; glycosphingolipid 5 and 10 μM added with D-PDMP 50 μM, 0.5 hr before LPS/IFN, 24 hrs)	effect on D-PDMP inhibition of NO production [3]	effect on D-PDMP inhibition of iNOS mRNA and protein expression [3]	effect on D-PDMP inhibition of ERK 1/2 phosphorylation [5]	levels of phosphorylated IκB ([6]; LacCer added to D-PDMP)
			CCCCN1CC(O)C(O)C(O)C1CO [Miglustat, 1,5-(butylimino)-1,5-dideoxy-D-glucitol]	soluble							
fully reversed	reversed	effectively bypassed	lactosylceramide [LacCer]		blunted	no effect	blunted	reversed	reversed	reversed	increased
